Results as given in ChEMBL document CHEMBL4765381, “Neuropeptide FF and Its Receptors: Therapeutic Applications and Ligand Development” (J Med Chem, 2020).
Each block holds one compound with its values, some of them ahead of it. Numbered stars: 1 amine (or outer) side, 2 acyl side, 3 side chain; on linkers, the order of the positions; unused ones are H or OH. Square brackets hold non-standard residues; d marks the D form. Peptide text beside a SMILES is read from it. X1 = O=C1[C@@H](N[*:1])Cc2ccccc2CN1CCC(=O)[*:2]; Dmt = Cc1cc(O)cc(C)c1C[C@H](N)C(=O)O

What was measured:
[1] = biological target: T1, Neuropeptide FF receptor 1 (Homo sapiens, UniProt Q9GZQ6); test: Agonist activity at NPFFR1 (unknown origin) expressed in mouse NIH3T3 cells by receptor selection and amplification technology assay relative to control; assay type: cell-based
[2] = biological target: T2, Neuropeptide FF receptor 2 (Homo sapiens, UniProt Q9Y5X5); test: Agonist activity at NPFFR2 (unknown origin) expressed in mouse NIH3T3 cells by receptor selection and amplification technology assay relative to control; assay type: cell-based; settings: filed as agonist
[3] = biological target: T1, Neuropeptide FF receptor 1; test: Agonist activity at NPFFR1 (unknown origin) expressed in mouse NIH3T3 cells by receptor selection and amplification technology assay; assay type: cell-based
[4] = biological target: T1, Neuropeptide FF receptor 1; test: Agonist activity at NPFFR1 (unknown origin) expressed in HEK293T cells harboring EP2 incubated for 15 mins by cAMP assay relative to control; assay type: functional, cell-based
[5] = biological target: T1, Neuropeptide FF receptor 1; test: Agonist activity at NPFFR1 (unknown origin) expressed in HEK293T cells harboring EP2 incubated for 15 mins by cAMP assay; assay type: functional, cell-based
[6] = biological target: T2, Neuropeptide FF receptor 2; test: Agonist activity at NPFFR2 (unknown origin) expressed in HEK293T cells harboring EP2 incubated for 15 mins by cAMP assay relative to control; assay type: functional, cell-based; settings: filed as agonist
[7] = biological target: T2, Neuropeptide FF receptor 2; test: Agonist activity at NPFFR2 (unknown origin) expressed in HEK293T cells harboring EP2 incubated for 15 mins by cAMP assay; assay type: functional, cell-based
[8] = biological target: T2, Neuropeptide FF receptor 2; test: Agonist activity at human NPFFR2 expressed in CHO cells assessed as inhibition of forskolin-induced cAMP accumulation incubated for 30 mins by LANCE cAMP assay; assay type: functional, cell-based
[9] = biological target: T2, Neuropeptide FF receptor 2; test: Agonist activity at NPFFR2 (unknown origin) expressed in HEK293 cells assessed as inhibition of forskolin-induced cAMP accumulation incubated for 30 mins relative to control; assay type: functional, cell-based; settings: filed as agonist
[10] = biological target: T1, Neuropeptide FF receptor 1; test: Binding affinity to human NPFFR1 by radioligand binding assay
[11] = biological target: T2, Neuropeptide FF receptor 2; test: Binding affinity to human NPFFR2 by radioligand binding assay
[12] = biological target: Neuropeptide FF receptor 1 (Rattus norvegicus, UniProt Q9EP86); test: Binding affinity to rat NPFFR1 by radioligand binding assay
[13] = biological target: Neuropeptide FF receptor 2 (Rattus norvegicus, UniProt Q9EQD2); test: Binding affinity to rat NPFFR2 by radioligand binding assay
[14] = biological target: T2, Neuropeptide FF receptor 2; test: Agonist activity at NPFFR2 (unknown origin) expressed in mouse NIH3T3 cells by receptor selection and amplification technology assay; assay type: cell-based
[15] = biological target: T1, Neuropeptide FF receptor 1; test: Displacement of 125I-NPFF from human NPFFR1 incubated for 2 hrs by TopCount scintillation counting method
[16] = biological target: T2, Neuropeptide FF receptor 2; test: Displacement of 125I-NPFF from human NPFFR2 incubated for 2 hrs by TopCount scintillation counting method
[17] = biological target: T1, Neuropeptide FF receptor 1; test: Displacement of [3H]-FFRF-NH2 from human NPFFR1 expressed in CHO cell membrane by Topcount scintillation counting method; assay type: cell membranes
[18] = biological target: T2, Neuropeptide FF receptor 2; test: Displacement of [3H]-FFRF-NH2 from human NPFFR2 expressed in CHO cell membrane by Topcount scintillation counting method; assay type: cell membranes
[19] = biological target: T3, Prolactin-releasing peptide receptor (Homo sapiens, UniProt P49683); test: Displacement of [3H]-PrRP-20 from human PrRP receptor expressed in CHO cell membrane by TopCount scintillation counter method; assay type: cell membranes
T3 sequence (P49683 whole entry): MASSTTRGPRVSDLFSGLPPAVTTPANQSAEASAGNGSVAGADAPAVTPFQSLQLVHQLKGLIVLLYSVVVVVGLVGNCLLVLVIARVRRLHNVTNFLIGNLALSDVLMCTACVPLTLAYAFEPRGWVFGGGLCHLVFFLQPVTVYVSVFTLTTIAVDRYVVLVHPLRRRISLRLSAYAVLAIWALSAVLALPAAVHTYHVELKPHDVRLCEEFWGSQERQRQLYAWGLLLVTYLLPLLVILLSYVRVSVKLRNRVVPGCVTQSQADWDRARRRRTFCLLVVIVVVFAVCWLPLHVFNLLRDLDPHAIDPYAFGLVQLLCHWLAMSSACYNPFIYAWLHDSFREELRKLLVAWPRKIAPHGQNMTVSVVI

KiSS-1 receptor = KiSS-1 receptor (Homo sapiens, UniProt Q969F8); test: Displacement of [125I]-Kp-10 from human KISS1R expressed in CHO cell membrane by TopCount scintillation counter method; assay type: cell membranes
[20] = biological target: T4, Pyroglutamylated RF-amide peptide receptor (Homo sapiens, UniProt Q96P65); test: Displacement of [125I]-43RFa from human QRFP receptor expressed in CHO cell membrane by TopCount scintillation counter method; assay type: cell membranes
T4 sequence (Q96P65 whole entry): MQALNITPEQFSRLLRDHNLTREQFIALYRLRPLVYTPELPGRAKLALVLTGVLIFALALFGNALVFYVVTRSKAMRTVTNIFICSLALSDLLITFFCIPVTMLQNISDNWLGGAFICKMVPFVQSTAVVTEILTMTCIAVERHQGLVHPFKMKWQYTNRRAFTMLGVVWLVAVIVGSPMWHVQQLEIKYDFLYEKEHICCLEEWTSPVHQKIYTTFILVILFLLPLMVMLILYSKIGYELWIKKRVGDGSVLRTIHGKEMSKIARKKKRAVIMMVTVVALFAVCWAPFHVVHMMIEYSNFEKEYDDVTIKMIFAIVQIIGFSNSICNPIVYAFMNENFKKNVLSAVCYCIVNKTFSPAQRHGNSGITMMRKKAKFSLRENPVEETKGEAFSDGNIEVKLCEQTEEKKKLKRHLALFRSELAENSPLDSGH

[21] = biological target: T5, Kappa-type opioid receptor (Homo sapiens, UniProt P41145); test: Agonist activity at kappa opioid receptor (unknown origin) expressed in HEK-293A cells assessed as inhibition of forskolin-induced cAMP accumulation preincubated for 30 mins followed by [3H] cAMP addition measured after 2 hrs by scintillation counting method; assay type: functional, cell-based, HEK293-A
[22] = biological target: T1, Neuropeptide FF receptor 1; test: Agonist activity at NPFFR1 (unknown origin) expressed in HEK-293A cells assessed as inhibition of forskolin-induced cAMP accumulation preincubated for 30 mins followed by [3H] cAMP addition measured after 2 hrs by scintillation counting method; assay type: functional, cell-based, HEK293-A
[23] = biological target: T2, Neuropeptide FF receptor 2; test: Agonist activity at NPFFR2 (unknown origin) expressed in HEK-293A cells assessed as inhibition of forskolin-induced cAMP accumulation preincubated for 30 mins followed by [3H] cAMP addition measured after 2 hrs by scintillation counting method; assay type: functional, cell-based, HEK293-A
[24] = biological target: T5, Kappa-type opioid receptor; test: Agonist activity at human kappa opioid receptor expressed in HEK293 cells assessed as inhibition of forskolin-induced cAMP accumulation incubated for 15 mins followed by forskolin addition in presence of IBMX by Glo-sensor cAMP assay; assay type: functional, cell-based
Nociceptin receptor = Nociceptin receptor (Homo sapiens, UniProt P41146); test: Agonist activity at human nociceptin receptor expressed in HEK293 cells assessed as inhibition of forskolin-induced cAMP accumulation incubated for 15 mins followed by forskolin addition in presence of IBMX by Glo-sensor cAMP assay; assay type: functional, cell-based
[25] = biological target: Mu-type opioid receptor (Homo sapiens) (UniProt P35372); test: Agonist activity at human mu-opioid receptor expressed in HEK293 cells assessed as inhibition of forskolin-induced cAMP accumulation preincubated for 15 mins followed by forskolin addition in presence of IBMX by Glo-sensor cAMP assay relative to control; assay type: functional, cell-based; settings: filed as agonist
[26] = biological target: Delta-type opioid receptor (Homo sapiens) (UniProt P41143); test: Agonist activity at human delta-opioid receptor expressed in HEK293 cells assessed as inhibition of forskolin-induced cAMP accumulation preincubated for 15 mins followed by forskolin addition in presence of IBMX by Glo-sensor cAMP assay relative to control; assay type: functional, cell-based; settings: filed as agonist
[27] = biological target: T5, Kappa-type opioid receptor; test: Agonist activity at human kappa opioid receptor expressed in HEK293 cells assessed as inhibition of forskolin-induced cAMP accumulation incubated for 15 mins followed by forskolin addition in presence of IBMX by Glo-sensor cAMP assay relative to control; assay type: functional, cell-based; settings: filed as agonist
[28] = biological target: T1, Neuropeptide FF receptor 1; test: Agonist activity at human NPFFR1 expressed in CHO cells by [35S]-GTP S binding assay relative to control; assay type: cell-based; settings: filed as agonist
[29] = biological target: T2, Neuropeptide FF receptor 2; test: Agonist activity at human NPFFR2 expressed in CHO cells by [35S]-GTP S binding assay relative to control; assay type: cell-based; settings: filed as agonist
[30] = biological target: T1, Neuropeptide FF receptor 1; test: Displacement of [125I]YVP from human NPFFR1 expressed in CHO cells; assay type: cell-based
[31] = biological target: T2, Neuropeptide FF receptor 2; test: Displacement of [125I]Tyr-NPFF from human NPFFR2 expressed in green monkey Cos-1 cells; assay type: cell-based
[32] = biological target: T1, Neuropeptide FF receptor 1; test: Antagonist activity at human NPFFR1 expressed in CHO cells assessed as reversal of NPVF-induced inhibition of forskolin-stimulated cAMP accumulation incubated for 10 mins by liquid scintillation counting method; assay type: functional, cell-based
[33] = biological target: T1, Neuropeptide FF receptor 1; test: Displacement of [3H]-FFRF-NH2 from human FLAG-tagged NPFFR1 expressed in CHO cell membrane incubated for 30 mins by Topcount scintillation counting method
[34] = biological target: T2, Neuropeptide FF receptor 2; test: Displacement of [3H]-FFRF-NH2 from human FLAG-tagged NPFFR2 expressed in CHO cell membrane incubated for 30 mins by Topcount scintillation counting method

T1 sequence (Q9GZQ6 whole entry): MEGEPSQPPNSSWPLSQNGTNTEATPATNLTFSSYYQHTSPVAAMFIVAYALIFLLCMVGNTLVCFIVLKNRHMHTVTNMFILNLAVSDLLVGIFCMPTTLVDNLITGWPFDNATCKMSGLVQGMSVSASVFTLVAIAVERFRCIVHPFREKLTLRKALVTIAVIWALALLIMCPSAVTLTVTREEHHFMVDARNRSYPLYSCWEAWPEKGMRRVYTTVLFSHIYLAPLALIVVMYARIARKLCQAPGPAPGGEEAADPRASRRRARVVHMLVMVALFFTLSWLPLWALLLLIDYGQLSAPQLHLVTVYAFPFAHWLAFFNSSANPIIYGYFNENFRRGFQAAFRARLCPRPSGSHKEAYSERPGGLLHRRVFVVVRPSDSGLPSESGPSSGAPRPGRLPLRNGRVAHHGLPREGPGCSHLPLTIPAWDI
T2 sequence (Q9Y5X5 whole entry): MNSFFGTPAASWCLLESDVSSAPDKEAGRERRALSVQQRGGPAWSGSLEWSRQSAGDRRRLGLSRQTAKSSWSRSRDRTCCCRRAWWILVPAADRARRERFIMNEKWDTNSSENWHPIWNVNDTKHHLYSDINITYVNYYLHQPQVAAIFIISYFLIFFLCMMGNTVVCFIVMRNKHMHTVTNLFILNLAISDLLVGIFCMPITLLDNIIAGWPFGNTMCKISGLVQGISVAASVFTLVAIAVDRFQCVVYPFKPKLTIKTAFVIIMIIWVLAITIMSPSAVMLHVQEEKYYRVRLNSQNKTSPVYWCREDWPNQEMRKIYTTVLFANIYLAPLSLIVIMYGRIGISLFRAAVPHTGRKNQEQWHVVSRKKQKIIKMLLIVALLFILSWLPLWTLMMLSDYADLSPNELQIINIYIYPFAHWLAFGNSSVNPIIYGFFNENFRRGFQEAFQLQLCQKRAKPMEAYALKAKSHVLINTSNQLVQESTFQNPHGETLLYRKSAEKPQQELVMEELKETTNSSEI
T5 sequence (P41145 whole entry): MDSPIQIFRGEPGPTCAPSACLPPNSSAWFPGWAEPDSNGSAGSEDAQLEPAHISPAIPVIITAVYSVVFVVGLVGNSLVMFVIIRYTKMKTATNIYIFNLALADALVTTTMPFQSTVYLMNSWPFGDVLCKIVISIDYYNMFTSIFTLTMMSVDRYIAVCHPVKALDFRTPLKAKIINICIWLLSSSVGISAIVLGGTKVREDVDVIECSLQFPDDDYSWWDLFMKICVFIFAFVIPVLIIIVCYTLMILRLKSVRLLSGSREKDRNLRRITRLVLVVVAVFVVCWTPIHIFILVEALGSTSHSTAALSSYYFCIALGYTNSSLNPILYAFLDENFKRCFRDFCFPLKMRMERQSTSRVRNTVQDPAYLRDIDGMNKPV
KiSS-1 receptor, sequence (Q969F8 whole entry): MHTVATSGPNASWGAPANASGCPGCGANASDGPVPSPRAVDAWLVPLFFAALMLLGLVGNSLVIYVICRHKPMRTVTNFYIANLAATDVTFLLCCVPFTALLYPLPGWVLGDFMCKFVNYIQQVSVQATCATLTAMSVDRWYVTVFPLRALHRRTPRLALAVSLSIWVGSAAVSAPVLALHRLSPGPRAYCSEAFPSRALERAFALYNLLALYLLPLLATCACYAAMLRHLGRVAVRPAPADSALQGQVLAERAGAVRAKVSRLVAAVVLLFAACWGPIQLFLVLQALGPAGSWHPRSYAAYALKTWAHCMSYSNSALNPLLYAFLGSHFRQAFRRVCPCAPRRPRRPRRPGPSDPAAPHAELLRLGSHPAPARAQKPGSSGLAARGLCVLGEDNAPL
Neuropeptide FF receptor 2 (Rattus norvegicus, UniProt Q9EQD2), sequence (Q9EQD2 whole entry): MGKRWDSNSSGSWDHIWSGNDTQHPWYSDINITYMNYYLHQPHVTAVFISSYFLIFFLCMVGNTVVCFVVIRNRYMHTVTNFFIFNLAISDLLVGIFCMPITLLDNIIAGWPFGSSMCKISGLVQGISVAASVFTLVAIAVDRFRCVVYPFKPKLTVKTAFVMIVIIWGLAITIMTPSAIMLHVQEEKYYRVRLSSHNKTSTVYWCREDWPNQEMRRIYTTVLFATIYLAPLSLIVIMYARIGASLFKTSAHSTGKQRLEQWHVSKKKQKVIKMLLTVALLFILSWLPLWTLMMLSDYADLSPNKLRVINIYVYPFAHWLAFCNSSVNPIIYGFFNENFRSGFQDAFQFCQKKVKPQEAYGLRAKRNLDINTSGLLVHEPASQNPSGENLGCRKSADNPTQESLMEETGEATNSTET
Mu-type opioid receptor (Homo sapiens), sequence (P35372 whole entry): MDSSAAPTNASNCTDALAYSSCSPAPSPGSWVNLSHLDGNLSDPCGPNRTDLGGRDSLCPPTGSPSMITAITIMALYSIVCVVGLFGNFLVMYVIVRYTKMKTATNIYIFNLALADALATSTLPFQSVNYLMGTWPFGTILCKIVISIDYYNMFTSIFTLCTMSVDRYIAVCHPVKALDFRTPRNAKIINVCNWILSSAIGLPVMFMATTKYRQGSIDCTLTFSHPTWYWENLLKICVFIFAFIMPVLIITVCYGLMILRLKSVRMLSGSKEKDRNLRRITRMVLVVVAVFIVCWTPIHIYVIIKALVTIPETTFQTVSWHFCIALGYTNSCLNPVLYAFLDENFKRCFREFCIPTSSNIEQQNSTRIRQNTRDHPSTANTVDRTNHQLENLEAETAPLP
Neuropeptide FF receptor 1 (Rattus norvegicus, UniProt Q9EP86), sequence (Q9EP86 whole entry): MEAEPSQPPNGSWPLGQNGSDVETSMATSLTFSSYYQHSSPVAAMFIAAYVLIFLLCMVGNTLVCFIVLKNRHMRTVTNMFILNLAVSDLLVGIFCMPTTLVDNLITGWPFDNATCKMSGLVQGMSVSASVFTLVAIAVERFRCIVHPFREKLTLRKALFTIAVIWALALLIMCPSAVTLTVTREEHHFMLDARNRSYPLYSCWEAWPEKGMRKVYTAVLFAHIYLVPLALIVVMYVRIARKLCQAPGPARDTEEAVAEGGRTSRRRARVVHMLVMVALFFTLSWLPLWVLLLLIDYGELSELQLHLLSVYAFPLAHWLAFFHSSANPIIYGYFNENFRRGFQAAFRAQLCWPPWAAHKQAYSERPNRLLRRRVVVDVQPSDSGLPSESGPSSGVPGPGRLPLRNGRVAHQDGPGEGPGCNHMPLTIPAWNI
Delta-type opioid receptor (Homo sapiens), sequence (P41143 whole entry): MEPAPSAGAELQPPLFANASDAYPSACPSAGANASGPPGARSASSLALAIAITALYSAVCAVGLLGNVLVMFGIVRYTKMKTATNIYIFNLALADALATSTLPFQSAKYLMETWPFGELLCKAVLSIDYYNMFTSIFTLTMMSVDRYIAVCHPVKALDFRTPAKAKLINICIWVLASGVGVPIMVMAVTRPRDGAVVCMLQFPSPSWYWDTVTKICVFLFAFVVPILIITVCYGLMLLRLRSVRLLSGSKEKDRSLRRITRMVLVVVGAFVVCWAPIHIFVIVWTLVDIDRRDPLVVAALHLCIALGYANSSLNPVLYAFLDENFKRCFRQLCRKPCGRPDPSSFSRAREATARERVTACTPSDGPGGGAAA
Nociceptin receptor, sequence (P41146 whole entry): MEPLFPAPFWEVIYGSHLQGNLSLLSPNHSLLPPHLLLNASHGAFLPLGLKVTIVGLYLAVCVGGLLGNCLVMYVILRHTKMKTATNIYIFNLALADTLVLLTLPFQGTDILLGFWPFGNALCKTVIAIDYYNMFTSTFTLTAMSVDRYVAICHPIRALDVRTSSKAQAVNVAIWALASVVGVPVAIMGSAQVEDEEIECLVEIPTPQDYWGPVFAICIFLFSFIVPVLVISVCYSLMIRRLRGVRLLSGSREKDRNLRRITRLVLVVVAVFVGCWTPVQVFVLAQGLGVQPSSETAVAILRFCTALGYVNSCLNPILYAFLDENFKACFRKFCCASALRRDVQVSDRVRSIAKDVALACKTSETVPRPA

Efficacy ([1]; filed as agonist): 57.8%
Efficacy [2]: 72.1%
EC50 [3]: 0.251 µM
Efficacy ([4]; filed as agonist): 93%
EC50 [5]: 1.26 µM
Efficacy [6]: 114%
EC50 [7]: 3.16 µM
SMILES: N=C(N)N/N=C/c1ccc(-c2ccccc2C(F)(F)F)o1

Efficacy [1]: 11%
EC50 [14]: 0.794 µM
Efficacy [4]: 23%
Ki [15]: 0.1 µM
Ki [16]: 0.126 µM
SMILES: N=C(N)N/N=C/c1ccc(Br)c(Br)c1

Ki [17]: 0.001 µM
Ki [18]: 0.037 µM
Ki [19]: > 5 µM
Ki (KiSS-1 receptor): > 5 µM
Ki [20]: > 5 µM
SMILES: NC1=NC=C(c2ccc(Cl)c(Cl)c2)CN1

Ki [30]: 0.058 µM
Ki [31]: 0.075 µM
EC50 [32]: 4.7 µM
SMILES: NC(=O)[C@H](Cc1ccccc1)NC(=O)[C@H](CCCN=C(N)N)NC(=O)C12CC3CC(CC(C3)C1)C2

Ki [33]: 0.172 µM
Ki [34]: 0.56 µM
SMILES: O=C(N[C@@H](CCCN1CCCCC1)C(=O)NCCc1ccccc1)c1ccccc1-c1ccccc1

The remaining lines, values behind:

SMILES: C[C@@H](NC(=O)[C@@H](N)Cc1ccc(O)cc1)C(=O)NCC(=O)N[C@@H](Cc1ccccc1)C(=O)N[C@@H](CCC(N)=O)C(=O)N1CCC[C@H]1C(=O)N[C@@H](CCC(N)=O)C(=O)N[C@@H](CCCNC(=N)N)C(=O)N[C@@H](Cc1ccccc1)C(N)=O (H-Y[dA]GFQPQRF-NH2)
EC50 [8]: 0.178 µM
Emax [9]: 117%

SMILES: Cc1cc(NC(=N)N)nc2ccccc12
Ki [10]: 0.013 µM
Ki [11]: 0.091 µM
Ki [12]: 0.007 µM
Ki [13]: 0.185 µM

SMILES: N=C(N)NCCC[C@H](NC(=O)[C@H](CCC(N)=O)NC(=O)[C@@H]1CCCN1C(=O)[C@H](CCC(N)=O)NC(=O)[C@H](Cc1ccccc1)NC(=O)[C@H](Cc1ccccc1)NC(=O)[C@@H]1CCCN1C(=O)[C@@H](N)Cc1ccc(O)cc1)C(=O)N[C@@H](Cc1ccccc1)C(N)=O (H-YPFFQPQRF-NH2)
EC50 [21]: 0.00444 µM
EC50 [22]: 0.599 µM
EC50 [23]: 0.0253 µM

SMILES: Cc1cc(O)cc(C)c1C[C@H](N)C(=O)N[C@H](CCCNC(=N)N)C(=O)N[C@H]1Cc2ccccc2CN(CCC(=O)N[C@@H](CCCNC(=N)N)C(=O)N[C@@H](Cc2ccccc2)C(N)=O)C1=O (H-[Dmt][dR][X1]RF-NH2)
EC50 [24]: 0.108 µM
EC50 (Nociceptin receptor): > 10 µM
Emax [25]: 92%
Emax [26]: 89%
Emax [27]: 95%
Emax [28]: 88%
Emax [29]: 111%
